Here are results for 19 molecules from the supplement of paper PMC11368000.

SMILES strings stand for the structures.

The first test deals with 1118 (donor line of iPSC-derived cardiomyocytes). Kind of test: POD (EC05) for increase in Ca2+ transient decay-to-rise ratio (QT prolongation) vs vehicle; higher = less potent (higher point of departure). The note with it: exposure time: 90 min. The method in brief: (§1)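 For each of 16 donors, iPSC-derived human cardiomyocytes were cultured 14 days in gelatin-coated 384-well plates and given a fluorescent Ca2+ dye for 2 h. Exposure lasted 90 min at 37 °C at 0.1, 1, 10 and 100 µM final, with 0.5% DMSO, and a FLIPR Tetra captured Ca2+ flux at 8 frames/s over 100 s both before and afterwards. Points of departure per donor were estimated by hierarchical Bayesian Hill fits to vehicle-normalised beat frequency, decay-to-rise ratio or peak frequency, using thresholds of 5% change, or 95% loss for peak frequency.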
As for `OCC(F)(F)C(F)(F)C(F)(F)F` [Heptafluorobutanol], the POD vs vehicle is above 100 µM.
For `OCC(F)(F)C(F)(F)C(F)(F)CO` [Hexafluoroamylene_glycol], the POD vs vehicle is above 100 µM.
For `COC(=O)C(F)(F)C(F)(F)OC(F)(C(F)(F)F)C(F)(F)OC(F)=C(F)F` (stereo not drawn) [Methyl_perfluoro(3-(1-ethenyloxypropan-2-yloxy)propanoate)], the POD vs vehicle is above 100 µM.
The same measure, in the same setting: with `NC(=O)C(F)(F)C(F)(F)C(F)(F)C(F)(F)F` [Nonafluoropentanamide] the figure was above 100 µM; with `NC(=O)C(F)(F)C(F)(F)C(F)(F)C(F)(F)C(N)=O` [Octafluoroadipamide], above 100 µM.
Consider `O=C(O)C(F)(F)C(F)(F)C(F)(F)C(F)(F)C(=O)O` [Octafluoroadipic_acid], for which the POD vs vehicle was above 100 µM.
Consider `O=C(O)C(F)(F)C(F)(F)C(F)(F)OC(F)(F)F` [Perfluoro(4-methoxybutanoic)_acid], for which the POD vs vehicle is above 100 µM.
As to `O=C(O)C(F)(F)OC(F)(F)C(F)(F)OC(F)(F)C(F)(F)OC(F)(F)C(F)(F)C(F)(F)C(F)(F)F` [Perfluoro-3,6,9-trioxatridecanoic_acid], the POD vs vehicle was above 100 µM.
On to `O=C(O)C(F)(F)OC(F)(F)C(F)(F)OC(F)(F)F` [Perfluoro-3,6-dioxaheptanoic_acid], for which the POD vs vehicle was above 100 µM.
Still for that read-out and setting: with `O=C(O)C(F)(F)OC(F)(F)C(F)(F)OC(F)(F)C(=O)O` [Perfluoro-3,6-dioxaoctane-1,8-dioic_acid] the figure was above 100 µM.

Another test deals with 20032 (donor line of iPSC-derived cardiomyocytes). The description is as above. The note with it: exposure time: 90 min. The method in brief: as §1
Take `OCCC(F)(F)C(F)(F)C(F)(F)C(F)(F)C(F)(F)C(F)(F)F` [6:2 Fluorotelomer alcohol]: the POD vs vehicle is above 100 µM.
As for `O=S(=O)(O)CCC(F)(F)C(F)(F)C(F)(F)C(F)(F)C(F)(F)C(F)(F)F` [6:2 Fluorotelomer sulfonic acid], the POD vs vehicle was above 100 µM.
Regarding `OCCC(F)(F)C(F)(F)C(F)(F)C(F)(F)C(F)(F)C(F)(F)C(F)(F)C(F)(F)F` [8:2 Fluorotelomer alcohol], the POD vs vehicle was above 100 µM.
`O=S(=O)(O)CCC(F)(F)C(F)(F)C(F)(F)C(F)(F)C(F)(F)C(F)(F)C(F)(F)C(F)(F)F` [8:2 Fluorotelomer sulfonic acid]: the POD vs vehicle is above 100 µM.
For `O=C(O)C(F)(F)C(F)(F)C(F)(F)C(F)(F)C(F)(F)C(F)(F)C(F)(F)C(F)(F)Cl` [9-Chloro-perfluorononanoic_acid], the POD vs vehicle is above 100 µM.
Take `O=P(O)(O)CCC(F)(F)C(F)(F)C(F)(F)C(F)(F)C(F)(F)C(F)(F)C(F)(F)C(F)(F)F` [((Perfluorooctyl)ethyl)phosphonic_acid]: the POD vs vehicle is above 100 µM.
Turning to `O=C([O-])C(F)(F)C(F)(F)C(F)(F)C(F)(F)C(F)(F)C(F)(F)C(F)(F)F.[NH4+]` [Ammonium_perfluorooctanoate], the POD vs vehicle was above 100 µM.
Still for that read-out and setting: then `OCC(F)(F)C(F)(F)C(F)(F)C(F)(F)C(F)(F)C(F)F` [Dodecafluoroheptanol], with 0.504 µM; and `OCC(F)(F)OC(F)(F)C(F)(F)OC(F)(F)C(F)(F)OC(F)(F)F` [Fluorinated_triethylene_glycol_monomethyl_ether], with above 100 µM.
Turning to `OCC(F)(F)C(F)(F)C(F)(F)F` [Heptafluorobutanol], the POD vs vehicle is above 100 µM.
On the same count and under the same terms, with `OCC(F)(F)C(F)(F)C(F)(F)CO` [Hexafluoroamylene_glycol] the figure was above 100 µM.
In the case of `COC(=O)C(F)(F)C(F)(F)OC(F)(C(F)(F)F)C(F)(F)OC(F)=C(F)F` (stereo not drawn) [Methyl_perfluoro(3-(1-ethenyloxypropan-2-yloxy)propanoate)], the POD vs vehicle is above 100 µM.
On the same count and under the same terms, with `NC(=O)C(F)(F)C(F)(F)C(F)(F)C(F)(F)F` [Nonafluoropentanamide] the figure was 0.52 µM; with `NC(=O)C(F)(F)C(F)(F)C(F)(F)C(F)(F)C(N)=O` [Octafluoroadipamide], above 100 µM.
In the case of `O=C(O)C(F)(F)C(F)(F)C(F)(F)C(F)(F)C(=O)O` [Octafluoroadipic_acid], the POD vs vehicle is above 100 µM.
As to `O=C(O)C(F)(F)C(F)(F)C(F)(F)OC(F)(F)F` [Perfluoro(4-methoxybutanoic)_acid], the POD vs vehicle is above 100 µM.
For `O=C(O)C(F)(F)OC(F)(F)C(F)(F)OC(F)(F)C(F)(F)OC(F)(F)C(F)(F)C(F)(F)C(F)(F)F` [Perfluoro-3,6,9-trioxatridecanoic_acid], the POD vs vehicle is above 100 µM.
Consider `O=C(O)C(F)(F)OC(F)(F)C(F)(F)OC(F)(F)F` [Perfluoro-3,6-dioxaheptanoic_acid], for which the POD vs vehicle is above 100 µM.
`O=C(O)C(F)(F)OC(F)(F)C(F)(F)OC(F)(F)C(=O)O` [Perfluoro-3,6-dioxaoctane-1,8-dioic_acid]: the POD vs vehicle was above 100 µM.

The next test concerns 1368 (donor line of iPSC-derived cardiomyocytes). The test is described as above. The note with it: exposure time: 90 min. In short, it runs like this:
as §1
In the case of `OCCC(F)(F)C(F)(F)C(F)(F)C(F)(F)C(F)(F)C(F)(F)F` [6:2 Fluorotelomer alcohol], the POD vs vehicle was above 100 µM.
For `O=S(=O)(O)CCC(F)(F)C(F)(F)C(F)(F)C(F)(F)C(F)(F)C(F)(F)F` [6:2 Fluorotelomer sulfonic acid], the POD vs vehicle is above 100 µM.
Consider `OCCC(F)(F)C(F)(F)C(F)(F)C(F)(F)C(F)(F)C(F)(F)C(F)(F)C(F)(F)F` [8:2 Fluorotelomer alcohol], for which the POD vs vehicle was above 100 µM.
On to `O=S(=O)(O)CCC(F)(F)C(F)(F)C(F)(F)C(F)(F)C(F)(F)C(F)(F)C(F)(F)C(F)(F)F` [8:2 Fluorotelomer sulfonic acid], for which the POD vs vehicle was above 100 µM.
For `O=C(O)C(F)(F)C(F)(F)C(F)(F)C(F)(F)C(F)(F)C(F)(F)C(F)(F)C(F)(F)Cl` [9-Chloro-perfluorononanoic_acid], the POD vs vehicle was above 100 µM.
In the case of `O=P(O)(O)CCC(F)(F)C(F)(F)C(F)(F)C(F)(F)C(F)(F)C(F)(F)C(F)(F)C(F)(F)F` [((Perfluorooctyl)ethyl)phosphonic_acid], the POD vs vehicle is above 100 µM.
Consider `O=C([O-])C(F)(F)C(F)(F)C(F)(F)C(F)(F)C(F)(F)C(F)(F)C(F)(F)F.[NH4+]` [Ammonium_perfluorooctanoate], for which the POD vs vehicle was above 100 µM.
Same read-out and setting: with `OCC(F)(F)C(F)(F)C(F)(F)C(F)(F)C(F)(F)C(F)F` [Dodecafluoroheptanol] the figure was above 100 µM; with `OCC(F)(F)OC(F)(F)C(F)(F)OC(F)(F)C(F)(F)OC(F)(F)F` [Fluorinated_triethylene_glycol_monomethyl_ether], above 100 µM; with `OCC(F)(F)C(F)(F)C(F)(F)F` [Heptafluorobutanol], above 100 µM.
For `OCC(F)(F)C(F)(F)C(F)(F)CO` [Hexafluoroamylene_glycol], the POD vs vehicle is above 100 µM.
On to `COC(=O)C(F)(F)C(F)(F)OC(F)(C(F)(F)F)C(F)(F)OC(F)=C(F)F` (stereo not drawn) [Methyl_perfluoro(3-(1-ethenyloxypropan-2-yloxy)propanoate)], for which the POD vs vehicle is above 100 µM.
For `NC(=O)C(F)(F)C(F)(F)C(F)(F)C(F)(F)F` [Nonafluoropentanamide], the POD vs vehicle was above 100 µM.
In the case of `NC(=O)C(F)(F)C(F)(F)C(F)(F)C(F)(F)C(N)=O` [Octafluoroadipamide], the POD vs vehicle is above 100 µM.
With `O=C(O)C(F)(F)C(F)(F)C(F)(F)C(F)(F)C(=O)O` [Octafluoroadipic_acid], the POD vs vehicle is above 100 µM.
Consider `O=C(O)C(F)(F)C(F)(F)C(F)(F)OC(F)(F)F` [Perfluoro(4-methoxybutanoic)_acid], for which the POD vs vehicle is above 100 µM.
Regarding `O=C(O)C(F)(F)OC(F)(F)C(F)(F)OC(F)(F)C(F)(F)OC(F)(F)C(F)(F)C(F)(F)C(F)(F)F` [Perfluoro-3,6,9-trioxatridecanoic_acid], the POD vs vehicle is above 100 µM.
Still for that read-out and setting: then `O=C(O)C(F)(F)OC(F)(F)C(F)(F)OC(F)(F)F` [Perfluoro-3,6-dioxaheptanoic_acid], with above 100 µM.
For the molecule `O=C(O)C(F)(F)OC(F)(F)C(F)(F)OC(F)(F)C(=O)O` [Perfluoro-3,6-dioxaoctane-1,8-dioic_acid], the POD vs vehicle was above 100 µM.
